No end group written: not given here.
Target: T1, hPTH-2 Receptor (Homo sapiens, UniProt P49190)
T1 construct: expressed in transfected cells; host or cells: LLC-PK1 porcine kidney cells (clone given as hPR2-20, hPR2-22, LLC-P2R-22 or P2R-22)
Assay: cAMP stimulation in LLC-P2R-22 cells (LLC-PK1 stably transfected with hPTH-2 receptor)
Type: cell-based
Conditions: for EC50 Log M / Emax: LLC-P2R-22 cells (hPTH-2 Receptor)
Excerpt: Stably transfected derivatives of the porcine kidney cell line LLC-PK1, HKRK-B7 (Takasu, H., et al., J. Bone Miner. Res. 14:11-20 (1999)) and hPR2-20, express the human PTH-1 and human PTH-2 receptors respectively. The HKRK-B7 LLC-PK1 cell line expresses the hPTH-1 receptor at ˜1×10^6 receptors/cell (Takasu, H., et al., J. Bone Miner. Res. 14:11-20 (1999)), and the hPR2-22 LLC-PK1 cell line expresses the hPTH-2 receptor at ˜0.8×10^6 receptors/cell (provided by H. Takasu and F. R. Bringhurst, Endocrine Unit, Massachusetts General Hospital).
Stimulation of cells with peptide analogs was performed in 24-well plates. Cells were rinsed with 0.5 mL of binding buffer and treated with 200 μL of cAMP assay buffer (Dulbecco's modified Eagle's medium containing 2 mM 3-isobutyl-1-methylxanthine, 1 mg/mL bovine serum albumin, 35 mM Hepes-NaOH, pH 7.4) and 100 μL of binding buffer containing varying amounts of peptide analog (final volume=300 μL). The medium was removed after incubation for 1 h at room temperature, and the cells were frozen (−80° C.), lysed with 0.5 mL 50 mM HCl, and refrozen (−80° C.). The cAMP content of the diluted lysate was determined by radioimmunoassay. Where possible, cAMP EC50 and Maximum response values were determined using nonlinear regression (see below).
Intracellular cAMP accumulation may be measured as described by Abou-Samra et al., J. Biol. Chem. 262:1129, 1986) or other methods known to those of skill in the art. Intracellular cAMP is extracted by thawing the cells in 1 ml of 50 mM HCl and analyzed by a specific radioimmunoassay using an anti-cAMP antibody (e.g., Sigma, St. Louis, Mo.). A cAMP analog (2′-O-monosuccinyl-adenosine 3′:5′-cyclic monophosphate tyrosyl methyl ester, obtained from Sigma) which is used as a tracer for cAMP is iodinated by the chloramine T method. Free iodine is removed by adsorbing the iodinated cAMP analog onto a C18 Sep-pak cartridge (Waters, Milford, Mass.). After washing with dH2O, the iodinated cAMP analog is eluted from the Sep-pak Cartridge with 40% acetonitrille (ACN) and 0.1% trifluoroacetic acid (TFA). The iodinated cAMP analog is lyophilized, reconstituted in 1 ml 0.1% TFA, and injected into a C18 reverse phase HPLC column (Waters). The column is equilibrated with 10% ACN in 0.1% TFA, and eluted with gradient of 10-30% ACN in 0.1% TFA. This allows separation of the mono-iodinated cAMP analog from the non-iodinated cAMP analog. The tracer is stable for up to 4 months when stored at −20° C. The standard used for the assay, adenosine 3′:5′-cyclic monophosphate, is purchased from Sigma. Samples (1-10 µl of HCl extracts) or standards (0.04-100 fmol/tube) are diluted in 50 mM Na-acetate (pH 5.5), and acetylated with 10 μl of mixture of triethylamine and acetic anhydride (2:1 vol:vol). After acetylation, cAMP antiserum (100 μl) is added from a stock solution (1:4000) made in PBS (pH 7.4), 5 mM EDTA and 1% normal rabbit serum. The tracer is diluted in PBS (pH 7.4) with 0.1% BSA, and added (20,000 cpm/tube). The assay is incubated at 4° C. overnight. The bound tracer is precipitated by adding 100 μl of goat anti-rabbit antiserum (1:20 in PBS) and 1 ml of 7% polyethyleneglycol (MW 5000-6000), centrifuging at 2000 rpm for 30 min. at 4° C. The supernatant is removed and the bound radioactivity is counted in a gamma-counter (Micromedic). To compute the cAMP data, logit calculations were performed in Excel spreadsheets. Typically, the assay sensitivity is 0.1 fmol/tube, and the standard concentration that displaces 50% of tracer is 5 fmol/tube.
All calculations were performed using Microsoft Excel. Nonlinear regression analysis of cAMP stimulation data was performed using parameters, defined as the Minimum, Maximum, Emax, midpoint (EC50), and slope of the response curve. The predicted response (yp) for a given dose (x) of peptide was calculated using the following equation: yp=Min+[(Max−Min)/(1+(EC50/x)^slope)]. […]

[1] = LLC-PK1 cells expressing PTH-2 receptor, cAMP

T1 sequence (P49190 25-550): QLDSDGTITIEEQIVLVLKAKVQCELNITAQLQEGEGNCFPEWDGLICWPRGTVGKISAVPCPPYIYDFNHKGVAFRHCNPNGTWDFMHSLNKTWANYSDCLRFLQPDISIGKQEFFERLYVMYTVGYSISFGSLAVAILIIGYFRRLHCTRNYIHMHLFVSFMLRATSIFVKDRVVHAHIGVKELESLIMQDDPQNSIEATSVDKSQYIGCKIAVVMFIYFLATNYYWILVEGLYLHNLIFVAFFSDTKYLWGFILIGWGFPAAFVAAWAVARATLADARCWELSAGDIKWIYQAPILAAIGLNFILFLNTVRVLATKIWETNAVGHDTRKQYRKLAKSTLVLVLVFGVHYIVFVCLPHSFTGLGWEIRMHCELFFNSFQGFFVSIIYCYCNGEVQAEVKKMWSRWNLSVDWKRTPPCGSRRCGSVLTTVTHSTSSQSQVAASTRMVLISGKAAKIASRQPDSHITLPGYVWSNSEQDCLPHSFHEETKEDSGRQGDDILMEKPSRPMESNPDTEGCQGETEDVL

Molecule	EC50 Log M (cAMP)	stimulation of the PTH-2 receptor (in words) [1]	Emax [picomole/well]	potency relative to PTH(1-34) [1]
AVSEIQLMHNLGKH-NH2 [native rPTH(1-14), AVSEIQLMHNLGKH, reference compound]	inactive	did not stimulate		
CCCC[C@H](NC(=O)[C@H](CCCNC(=N)N)NC(=O)[C@H](CCC(=O)O)NC(=O)[C@@H](NC(=O)[C@H](CO)NC(=O)[C@H](C)NC(=O)[C@H](CC(C)C)NC(=O)[C@H](Cc1c[nH]cn1)NC(=O)[C@H](CCCCN)NC(=O)CNC(=O)[C@H](CC(C)C)NC(=O)[C@H](CC(N)=O)NC(=O)[C@H](Cc1c[nH]cn1)NC(=O)[C@H](CCCC)NC(=O)[C@H](CC(C)C)NC(=O)[C@H](CCC(N)=O)NC(=O)[C@@H](NC(=O)[C@H](CCC(=O)O)NC(=O)[C@H](CO)NC(=O)[C@@H](NC(=O)[C@H](C)N)C(C)C)[C@@H](C)CC)C(C)C)C(=O)N[C@@H](CCC(N)=O)C(=O)N[C@@H](Cc1c[nH]c2ccccc12)C(=O)N[C@@H](CC(C)C)C(=O)N[C@@H](CCCNC(=N)N)C(=O)N[C@@H](CCCCN)C(=O)N[C@@H](CCCCN)C(=O)N[C@@H](CC(C)C)C(=O)N[C@@H](CCC(N)=O)C(=O)N[C@@H](CC(=O)O)C(=O)N[C@H](C(=O)N[C@@H](Cc1c[nH]cn1)C(=O)N[C@@H](CC(N)=O)C(=O)N[C@@H](Cc1ccc(O)cc1)C(N)=O)C(C)C [[Nle8, 21, Y34]rPTH(1-34), [Nle^8,21,Tyr^34]-rPTH(1-34)NH2, reference compound]			744 ± 48	
AVAEIQLMHARAKHLNSMERVEWLRKKLQDVHNY-NH2 [Peptide #7]			677	
AVAEIQLMHARAKH-NH2 [Peptide #1, AlaValAlaGluIleGlnLeuMetHisAlaArgAlaLysHis-amide]		active	292 ± 100	four to five orders of magnitude weaker
AVAEIQLMHAR-NH2 [compound 6, AlaValAlaGluIleGlnLeuMetHisAlaArg-amide]	weakly			

— patent US8568736B2, “Polypeptide derivatives of parathyroid hormone (PTH)” (The General Hospital Corporation, priority 1999, dated 2013)
